Data from the METLIN SMRT retention time set (Domingo-Almenara et al. 2019).

Test: gradient 5% acetonitrile 3 min, to 50% in 2 min, to 85% in 15 min, held 3 min, 100 µL/min
Conditions: column: Zorbax Extend-C18 2.1 x 50 mm; eluents: water / acetonitrile, 0.1% formic acid
Summary of the method: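 Retention times come from adduct peaks that were picked computationally and then checked by hand. The standards, pure and pooled in mixtures of ~100 molecules, were run on a Zorbax Extend-C18 column (2.1 × 50 mm, 1.8 μm) at 100 μL/min with water and acetonitrile, each with 0.1% formic acid. Detection was by quadrupole time-of-flight mass spectrometry in positive and negative ionization mode, with a dead volume of 40 μL and a dwell volume of 900 μL.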

Compound	RP-LC retention time [s]
CCOC(=O)c1nc(N(CCC(=O)OC)c2ccccc2)c2ccccc2n1	919
Cc1sc2ccn(Cc3ccc(F)cc3)c(=O)c2c1C(=O)NCCN1CCN(C)CC1	591
CCN(CC)S(=O)(=O)c1ccc2nc(NCc3ccc4c(c3)OCO4)cnc2c1	964
CC(=O)c1ccc(NS(=O)(=O)c2ccc3ccccc3c2)cc1	822
Cn1ncc2c3ccccc3n(CCCC(=O)NCc3cccnc3)c2c1=O	612
CCn1cc(S(=O)(=O)NCc2ccc(C)cc2)c2cccnc21	900
O=C(Nc1cnc(N2CCCC2)nc1)c1ccc(F)cc1	710
O=C(NC1CCCC1)C(=O)c1cccn1Cc1ccc(F)cc1	1020
CCOC(=O)c1c(S(=O)(=O)N2CCC(C(=O)NC(C)CC)CC2)c(C)n(C)c1C (stereo not given)	747
COCCn1cc(CCNC(=O)Nc2cc(F)c(F)c(F)c2)c2cccnc21	800
Clc1ccc(Cl)c(-c2ccc(CNCC3CCNCC3)o2)c1	574
Cc1cccn2cc(-c3ccc(NS(=O)(=O)c4ccccc4)cc3)nc12	617
O=C(NCCC1=CCCCC1)C1CCN(C(=O)c2ncn3c2COC(c2ccccc2)C3)CC1 (stereo not given)	820
CCc1noc(-c2ccnc(-n3ncc(C(=O)NCC4CC4)c3C)c2)n1	1110
c1ccc(-c2nc3cc(-c4noc(C5CC5)n4)ccc3o2)cc1	1230
CCCCOc1ccc(NC(=O)N(Cc2ccccn2)Cc2ccco2)cc1	788
COc1ccccc1CC(=O)Nc1ccc(-c2nc(Cn3cccn3)c(C)o2)cc1	869
Cc1nc(CC(=O)Nc2ccc(Cl)c(F)c2)sc1C(=O)NC1CC1	750
Cc1ccc(N2CCN(CC(O)COc3ccc([N+](=O)[O-])cc3)CC2)cc1 (stereo not given)	601
Cn1nc(C(=O)N2CCCC(c3nnc(-c4ccccc4F)s3)C2)ccc1=O (stereo not given)	690
CSc1ccccc1NC(=O)C(=O)NCC1CCN(C(=O)Oc2ccccc2)CC1	998
O=C(Cn1cnc2c(sc3nc(-c4ccccc4)ccc32)c1=O)Nc1cc(F)cc(F)c1	1070
COc1cc(C(=O)N(Cc2ccc(N(C)C)cc2)CC2CCCO2)cc(OC)c1OC (stereo not given)	659

Compound	RP-LC retention time [s]
Cc1ccc(Cl)cc1NS(=O)(=O)c1cc2c(s1)CCN(C(=O)C1CC1)C2	901
CCn1cc(-c2nc(-c3ccc(OC)cc3OC)no2)c(=O)c2cc(F)ccc21	830
Cc1cccc(N2CCN(C(=O)c3cc(C4CC4)[nH]n3)CC2)c1C	921
Cn1cccc1C(CNS(=O)(=O)c1ccc2c(c1)OCCO2)N1CCOCC1 (stereo not given)	563
Cc1ccc(F)cc1NC(=O)c1c(O)c2cccnc2n(-c2ccc(F)cc2)c1=O	1290
Cn1ncc2c3ccccc3n(CCCC(=O)N3CCCCC3)c2c1=O	824
Cc1ccc2c(c1)N(Cc1ccc(F)cc1)N=C(C(=O)N1CCOCC1)S2(=O)=O	839
O=C(NCc1cccs1)c1cc2n(n1)CCCC2	753
O=C([C@@H]1C[C@H](Oc2cccnc2)CN1C(=O)c1ccco1)N1CCCC1	553
CCOC(=O)c1c(S(=O)(=O)N2CCC(C(=O)Nc3ccc(CC)cc3)CC2)c(C)n(CC)c1C	984
Cn1c(=O)n(C)c2cc(CNc3ccc4[nH]c(=O)[nH]c4c3)ccc21	561
Cc1ccc(CCNC(=O)Cc2csc3nc(-c4ccc(C)c(C)c4)cn23)cc1	884
CNC(=O)C1CCN(C(=O)Nc2ccc(NC(=O)Nc3ccccc3)cc2)CC1	636
O=C(NCc1ccccc1)C1CCN(S(=O)(=O)c2cc(C(=O)N3CCCCCC3)cs2)CC1	866
CC(=O)N1c2ccc(S(=O)(=O)NCc3ccc4c(c3)CCN4C(=O)C(C)C)cc2CC1C (stereo not given)	801
Cc1ccc(CC(=O)N2CCC3(CC2)NC(=O)c2cc(C)ccc2N3C)cc1	852
CCOC(=O)c1cccc(NC(=O)Cc2csc3nc(-c4ccc(C)c(C)c4)cn23)c1	929
O=C(c1n[nH]c2c1CCCC2)N1CCCCC1	695
COc1ccc(CNC(=O)CN2CCN(Cc3ccc(F)cc3)C2=O)c(OC)c1	793
CCCN(CC1CCOC1)C(=O)Nc1ccc(C)cc1Cl (stereo not given)	902
Cc1nc2cc(NS(=O)(=O)c3cccc4cccnc34)ccc2s1	753
COc1ccc(-c2nsc(SCC(=O)Nc3ccc4c(c3)OCCO4)n2)cc1	906
CCCNC(=O)N1CCc2cc(-c3ccc(C(=O)N4CCOCC4)cc3)ccc21	732

Compound	RP-LC retention time [s]
CCOc1ccc(-n2ccn3cc(-c4ccc(C)c(C)c4)nc3c2=O)cc1	938
CCc1nn2c(CNC(=O)c3ccsc3)c(-c3ccccc3)nc2s1	854
CSc1cccc(NC(=O)N2CCN(c3cc(C)nc(N4CCCC4)n3)CC2)c1	696
CCc1nnc(-c2ccc(S(=O)(=O)N3CCC(C)CC3)o2)o1	920
COc1ccc(C2Cn3nnc(-c4nc(-c5ccccc5Cl)no4)c3CO2)cc1 (stereo not given)	1150
CCN(CC)CCOC(=O)C(O)(c1ccccc1)c1ccccc1	714
Cc1nc(-c2csc(S(=O)(=O)N3CCC(C(=O)Nc4ccc(C(C)C)cc4)CC3)c2)no1	1090
COC(=O)c1c(NCc2cccnc2)c2cccc(Cl)c2[nH]c1=O	566
O=C1COc2cccnc2N1	648
COc1cccc(-c2nc(-c3cn(Cc4cccc(F)c4)nn3)no2)c1	995
CCOC(=O)c1ccc(NC(=O)Cn2c(N3CCOCC3)nc(CC)cc2=O)cc1	794
c1cncc(CN2CCc3c(sc4ncnc(N5CCOCC5)c34)C2)c1	649
CCOCCn1c(-c2ccccc2Cl)nc2ccccc21	707
CCCNC(=O)C1CCN(c2cncnc2N2CCCCC2)CC1	620
Cc1ccc(C)c(NC(=O)C2CCCN(c3cn[nH]c(=O)c3)C2)c1 (stereo not given)	668
Cc1cc(C)n(-c2ccnc(N3CCC(C(=O)NCc4ccc(F)cc4)CC3)n2)n1	833
CO[C@@H]1[C@H](OC(=O)NC(=O)CCl)CC[C@]2(CO2)[C@H]1[C@@]1(C)O[C@@H]1CC=C(C)C	692
COc1ccc(Nc2ncccc2S(N)(=O)=O)cc1OC	666
COc1ccc(-c2nnc3n2CCN(Cc2cn(C)nc2C)C3)cc1	552
CCc1nnc(-c2ccc3ccn(CC(=O)N4CCN(c5ccccc5F)CC4)c3c2)o1	892
O=C(c1cccs1)N1CCc2c([nH]c3ccccc23)C1c1ccc(F)cc1 (stereo not given)	1150
O=S(=O)(Nc1ccc(F)cc1)c1cccnc1Nc1ccc(Br)cc1	1150
COc1ccc(NC(=O)C2CCCN(c3nnc4ccc(Cl)cn34)C2)c(OC)c1 (stereo not given)	701

Compound	RP-LC retention time [s]
CCC(=O)Oc1cccc(N2C(=O)c3cccc([N+](=O)[O-])c3C2=O)c1	845
N#Cc1ccccc1CN1CCCC(N2CCCC2)C1=O (stereo not given)	574
O=C(NCc1ccc(Cl)cc1)c1nc(N2CCOCC2)c2ccccc2n1	721
O=C(C1CC(=O)N(C2CCCCC2)C1)N1CCC2(CC1)NCCc1c2[nH]c2ccccc12 (stereo not given)	654
Cc1ccc(N2CC(c3nc(Cn4cnc5ccccc5c4=O)no3)CC2=O)cc1C (stereo not given)	789
Cc1ccc(N2CCC(NC(=O)Nc3ccccc3Cl)C2=O)cc1C (stereo not given)	909
COCCCNC(=O)C1CCN(c2nc3cccnc3s2)CC1	623
CCOc1ccc(/C=C/C(=O)Nc2nc(-c3ccccc3)cs2)cc1	1140
O=C1NCCOCCN(S(=O)(=O)c2cccc3cccnc23)[C@@H]2CCCC[C@H]12	735
CCCN1C(=O)COc2ccc(-c3noc(-c4ccccc4C(F)(F)F)n3)cc21	1230
Cc1ccc(Nc2nc(C(=O)NCc3ccc(C)o3)nc3ccccc23)cc1	847
O=C1[C@H]2CN(Cc3cccc(Cl)c3)C[C@H]2C(=O)N1CCN1CCc2ccccc2C1	659
O=C(c1ccc2ccnc(N3CCN(c4ccc(Cl)cc4)CC3)c2c1)N1CCC2(CC1)OCCO2	791
Cc1ccc(-c2nocc2CCC(=O)O)cc1	748
O=S(=O)(CCc1ccccc1)NCC(O)Cc1ccccc1 (stereo not given)	792
COc1ccc(C(=O)NCC(c2cccn2C)N2CCCC2)c(OC)c1OC (stereo not given)	566
Cc1c(-c2nsc(Nc3ccccc3)n2)nnn1-c1ccccc1	946
CSc1cccc(NC(=O)N2CCN(c3cc(C)nc(N4CCOCC4)n3)CC2)c1	650
CCCN1C(=O)COc2ccc(-c3csc(NC(=O)C4CCCCC4)n3)cc21	1100
Cc1c(Cl)cccc1S(=O)(=O)Nc1ccc(Cn2cncn2)cc1	775
CCC(=O)N1CCc2c([nH]c3ccccc23)C12C(=O)Nc1ccc(Br)cc12 (stereo not given)	882
